The record followed here is EP4800006A1, “NICOTINAMIDE PHOSPHORIBOSYL TRANSFERASE AGONIST AND USE THEREOF” (Nanjing Reju Therapeutics Co. Ltd., priority 2023, dated 2025).

Structures are written as SMILES. In brackets after ≈: the same amount, converted by molar mass.

A short description of one data set: Solubility of compounds. The data set is classed as physicochemical. To be noted: acidic pH conditions. The protocol: The main objective of this example is to investigate the solubility of the compounds in Example 1.
Method: A certain amoun of NPL-00, NPL-000, and NPL-1 were weighed and transferred into centrifuge tubes, respectively. Solvent was added to each tube, and the pH value of the system was adjusted with hydrochloric acid and sodium hydroxide. The mixture was shaken for 30 s every 5 min, and the dissolution state was observed within 30 min. If incomplete dissolution was observed, additional solvent was supplemented, and the above operations were repeated until the compounds were completely dissolved, and the volume of solvent at this moment was recorded. The solubility of less than 0.1 mg/mL was defined as "insoluble."

The subject of another data set is C2C12 cells. In words: Differentiation of C2C12 cells (MYH1 immunostaining). The data set is classed as cell-based. The settings on record: 0.3 µM, 7 days, medium with 2% HBS, vs control group; FIG. 4. The protocol: The main objective of this example is to investigate the promotive effect of the compounds in Example 1 on the differentiation of muscle stem cells.
Method: C2C12 cells were selected and seeded into culture plates. After stabilization for 48 h, the medium was replaced with a medium containing 2% HBS to induce differentiation of the C2C12 cells. Meanwhile, the treatment group was treated with 0.3 µM NPL-1, while the control group was treated with an equivalent volume of the compound solvent. After continuous culture for 7 days, immunohistochemical staining was performed using MYH1 antibody, and the cell nuclei were stained with DAPI. Finally, the two channels were merged to analyze the degree of cell differentiation.

In the next data set the test system is Hacat cells. In words: ROS in UVA-irradiated Hacat cells (DCFH-DA fluorescence), antioxidation. The class given is cell-based. To be noted: 10 µM, 24 h then UVA, vs model group, FIG. 8. The method, then:
The main objective of this example is to investigate the antioxidation effect of the compounds in Example 1.
Method: Hacat cells were selected and seeded into culture plates. After stabilization for 24 h, the NPL-1 group was treated with 10 µM NPL-1, while the control group and model group were treated with an equivalent volume of the compound solvent, respectively. After 24 h of treatment, all groups except the control group were irradiated with UVA for modeling. At 0.5 h after the modeling was completed, the fluorescent probe DCFH-DA was added and incubated for 0.5 h, followed by fluorescence intensity measurement to evaluate the expression level of ROS.

In the next data set the test system is mouse skin. In words: NAD+ level in mouse skin after topical application. The class given is in vivo, C57BL/6 mice. To be noted: 3% topical application to the skin, 6 hours, compared to the control group; FIG. 3. The method, then:
The main objective of this example is to investigate the effect of the Compound NPL-1 in Example 1 on elevating NAD+ level in mouse skin via topical administration.
Method: Male C57BL/6 mice with 8-9 weeks old were treated with 3% of the Compound NPL-1 via topical application to the skin, and mouse skin samples were collected 6 hours later for NAD+ level detection.

For data set [1], the system named is Transgenic zebrafish with green fluorescent mitochondria. Kind of data set: Mitochondrial function in zebrafish, cobalt chloride model. The class given is in vivo. To be noted: 0.25%, 22 h then cobalt chloride 4 h, vs model group; FIG. 10. The method, then: The main objective of this example is to investigate the effect of the compounds in Example 1 on mitochondrial function.
Method: Transgenic zebrafish with green fluorescent mitochondria were placed in a 6-well plate. The NPL-4 group was treated with NPL-4 at a concentration of 0.25%, while the control group and model group were treated with an equivalent volume of the compound solvent. After treatment in the dark for 22 h, all groups except the control group were treated with cobalt chloride for modeling. Following incubation in the dark for additional 4 h, the fluorescence intensity of the zebrafish was detected.

The next data set concerns Wild-type zebrafish. Kind of data set: DNA damage repair in zebrafish, hydrogen peroxide model (comet assay). The class given is in vivo. To be noted: 0.25% for 5 days, DNA olive tail moment, vs model group, FIG. 11. The method, then:
The main objective of this example is to investigate the repairing effect of the compounds in Example 1 on DNA damage.
Method: Wild-type zebrafish were placed in a 6-well plate. All groups except the control group were treated with hydrogen peroxide to establish a zebrafish DNA damage model. Meanwhile, the NPL-4 group was treated with 0.25% NPL-4 for 5 days, while the control group and model group were treated with an equivalent volume of the compound solvent. The medium was renewed daily. Subsequently, zebrafish samples were collected and ground to prepare cell suspensions. Electrophoresis was performed using a comet assay kit, and data were collected and analyzed using comet analysis software. The DNA olive tail moment value of zebrafish cells was analyzed to evaluate the degree of DNA damage.

The next data set deals with U2OS cells. In words: Protective effect on U2OS cells against FK866-induced cytotoxicity (Cell Titer-Glo viability). To be noted: Homo sapiens, 10 nM FK866, test compound 10 µM, 72 h, viability relative to control minus that of model group, read-out: Percentage increase in cell viability. The data set is classed as cell-based. The method, then: The main objective of this example is to investigate the protective effects of the compounds in Example 1 against the cytotoxicity resulting from FK866-mediated reduction in NAD+ levels.
Method: U2OS cells were selected and seeded into culture plates. After cell stabilization for 1 day, 10 nM of FK866 was added to all groups except the control group to induce cell death. Meanwhile, the test compounds at a concentration of 10 µM were added to the corresponding drug treatment groups, respectively. An equivalent volume of the compound solvent was added to the control group and the model group, respectively. Following incubation for 72 h, Cell Titer-Glo Luminescent cell viability assay reagent (manufacturer: Promega) was added to each well. After mixing well and incubation for 10 minutes, luminescence was detected using a microplate reader with full-wavelength scanning. The pharmacological efficacy of the compounds, expressed as the percentage increase in cell viability, was calculated by subtracting the percentage of the cell viability in the model group relative to the control group from the percentage of the cell viability in the compound-treated group relative to the control group.
For orientation: Cellular ATP, detected with luciferase, serves as a proxy for viable cell number.

Another data set has as its system HSF cells. Kind of data set: p16 mRNA in UVA-irradiated HSF cells (qPCR), anti-aging. The settings on record: 10 µM, 24 h then UVA, mRNA by qPCR, vs model group; FIG. 7. The class given is cell-based. The method, then: The main objective of this example is to investigate the anti-aging effect of the compounds in Example 1.
Method: HSF cells were selected and seeded into culture plates. After stabilization for 24 h, the NPL-4 group was treated with 10 µM NPL-4, while the control group and model group were treated with an equivalent volume of the compound solvent, respectively. After 24 h of treatment, all groups except the control group were irradiated with UVA to induce cell senescence. The cells were then collected and RNA was extracted. The mRNA level of the senescence-associated gene p16 was determined using qPCR.

Another data set relates to tibialis anterior. In words: CTX-induced muscle injury model (tibialis anterior, HE staining). The class given is in vivo, C57BL/6 mice. To be noted: 3 mg/kg intraperitoneal once daily, 10 µM CTX into tibialis anterior, vs model group; FIG. 5. The protocol: The main objective of this example is to investigate the protective effect of the compounds in Example 1 in a muscle injury model. Method: Male C57BL/6 mice with 8-9 weeks old in the model group and the NPL-4 group were injected intraperitoneally with the corresponding solvent or compounds, respectively, for 1 consecutive week. Subsequently, 10 µM CTX was injected into the tibialis anterior for modeling. After another 7 days, the tibialis anterior was harvested for HE staining to evaluate the injury status of the tibialis anterior of the mice. The grouping was as follows: • Control group: 8 male C57BL/6 mice with 8-9 weeks old were treated with the same solvent as in the NPL-4 group via intraperitoneal injection once daily. One week later, normal saline was injected into the tibialis anterior for modeling, while intraperitoneal injection was continued. Seven days later, the tibialis anterior was harvested for HE staining. • Model group: 8 male C57BL/6 mice with 8-9 weeks old were treated with the same solvent as in the NPL-4 group via intraperitoneal injection once daily. One week later, 10 µM CTX was injected into the tibialis anterior for modeling, while intraperitoneal injection was continued. […]

For the compound `CC(C)(C)c1cccc(C#N)c1OCC(=O)Nc1ccc(O)cc1` [NPL-000], the solubility (in general, how much of the substance goes into solution per volume) in “Solubility of compounds” was < 100 µg/mL.
As for `CC(C)(C)c1ccccc1OCC(=O)Nc1ccc(O)cc1` [NPL-00], in “Solubility of compounds”, the solubility was < 100 µg/mL.
On to `CC(C)(C)c1ncccc1OCC(=O)Nc1ccc(O)cc1` [NPL-1], for which the “expression level of MYH1” value with C2C12 cells is recorded as “significantly higher”. In addition, the “expression level of ROS” value in the data set with Hacat cells is listed as “markedly decreased”. In addition, the solubility in the data set “Solubility of compounds” is 7000 µg/mL (≈ 23.3 mM). Also, the “NAD+ level in the mouse skin” value in the data set on mouse skin is listed as “effectively elevated”.
On to `CC(=O)Nc1ccc(NC(=O)COc2cccnc2C(C)(C)C)cc1` [NPL-4], for which, in data set [1], the mitochondrial fluorescence intensity result is recorded as “significantly enhanced”. The DNA damage result in the data set on Wild-type zebrafish is “significantly ameliorated”. Also, in the data set with U2OS cells, the increase in cell viability over FK866 model group at 10 µM is 128%. Moreover, the “expression of p16” value in the data set with HSF cells is reported as “markedly down-regulated”. Further, the damaged area entry with tibialis anterior is given as “significantly smaller”.
On to `CC(C)(C)c1ncncc1CCC(=O)Nc1ccc(O)cc1` [NPL-51, 3-(4-(tert-butyl)pyrimidin-5-yl)-N-(4-hydroxyphenyl)propionamide], for which the increase in cell viability over FK866 model group at 10 µM with U2OS cells stood at 105%.
Take `CC(=O)Nc1ccc(NC(=O)CCc2nccnc2C(C)(C)C)cc1` [NPL-67, N-(4-acetaminophenyl)-3-(3-(tert-butyl)pyrazin-2-yl)propionamide]: in the data set on U2OS cells, the increase in cell viability over FK866 model group at 10 µM was determined as 99.3%.
On the same count and under the same terms, the value for `CC(=O)Nc1ccc(NC(=O)COc2nccnc2C(C)(C)C)cc1` [NPL-70, N-(4-acetaminophenyl)-2-((3-(tert-butyl)pyrazin-2-yl)oxy)acetamide] was 112%; that for `CC(C)(C)c1nccnc1OCC(=O)Nc1ccc2[nH]c(=O)oc2c1` [NPL-71, 2-((3-(tert-butyl)pyrazin-2-yl)oxy)-N-(2-oxo-2,3-dihydrobenzo[d]oxazol-6-yl)acetamide] was 106%.
As to `CC(C)(C)c1nccnc1CCC(=O)Nc1ccc(O)cc1` [NPL-74, 3-(3-(tert-butyl)pyrazin-2-yl)-N-(4-hydroxyphenyl)propionamide], the increase in cell viability over FK866 model group at 10 µM with U2OS cells is 98.6%.
For the compound `CC(C)(C)c1nccnc1CCC(=O)Nc1ccc2[nH]c(=O)oc2c1` [NPL-76, 3-(3-(tert-butyl)pyrazin-2-yl)-N-(2-oxo-2,3-dihydrobenzo[d]oxazol-6-yl)propionamide], the increase in cell viability over FK866 model group at 10 µM with U2OS cells is 99%.
On to `CC(=O)Nc1ccc(NC(=O)COc2ncncc2C(C)(C)C)cc1` [NPL-79, 2-((5-(tert-butyl)pyrimidin-4-yl)oxy)-N-(4-(acetamido)phenyl)acetamide], for which the increase in cell viability over FK866 model group at 10 µM with U2OS cells was 97.9%.
